According to patent US10961216B2, “Small molecule modulators of the androgen receptor” (Massachusetts Institute of Technology, priority 2017, dated 2021):

How the values were obtained:
DU-145 (AR-) cell lines = assay: cell proliferation, DU-145; type: cell-based; details: 72 hours
22Rv1 (AR+) cell lines = assay: cell proliferation, 22Rv1; type: cell-based; details: 72 hours
AR-v7 = biological target: T1, AR-v7 (Homo sapiens, UniProt P10275); assay: small molecule microarray (SMM) screen, binding to AR-v7; details: SMM screened against AR-truncate of NTD and DBD (exons 1-3), with qPCR and reporter assays
T1 construct: screened against a functional AR-truncate composed of the NTD and DBD (exons 1-3)
T1 sequence (P10275 1-628 limits assumed): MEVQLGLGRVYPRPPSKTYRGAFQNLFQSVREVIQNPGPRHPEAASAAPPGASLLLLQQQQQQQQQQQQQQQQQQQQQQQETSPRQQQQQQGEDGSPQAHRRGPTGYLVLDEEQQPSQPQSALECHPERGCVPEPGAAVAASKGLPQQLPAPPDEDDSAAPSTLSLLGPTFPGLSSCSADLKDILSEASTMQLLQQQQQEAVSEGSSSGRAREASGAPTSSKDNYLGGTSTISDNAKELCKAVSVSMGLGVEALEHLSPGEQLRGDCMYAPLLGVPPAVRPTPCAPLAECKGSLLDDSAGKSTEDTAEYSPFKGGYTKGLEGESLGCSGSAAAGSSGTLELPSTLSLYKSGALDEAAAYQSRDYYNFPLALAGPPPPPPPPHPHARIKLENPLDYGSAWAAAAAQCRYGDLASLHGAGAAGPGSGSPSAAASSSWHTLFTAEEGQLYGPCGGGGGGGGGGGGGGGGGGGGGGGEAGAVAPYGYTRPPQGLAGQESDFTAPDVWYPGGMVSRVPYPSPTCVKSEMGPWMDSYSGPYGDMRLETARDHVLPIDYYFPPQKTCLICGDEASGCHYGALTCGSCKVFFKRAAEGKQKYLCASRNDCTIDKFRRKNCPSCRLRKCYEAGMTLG
Source text: (§1) To meet this need, compounds binding to AR-v7 were identified using the combination of a small molecule microarray (SMM) screen of 50,000 compounds, qPCR, and reporter assays. The SMM was screened against a functional AR-truncate composed of the NTD and DBD (exons 1-3) and therefore targeting these domains specifically. Candidate compounds were further evaluated in a series of assays designed to show specificity to AR-sensitive cell lines.

LNCaP (AR+) cell lines = assay: cell proliferation, LNCaP; type: cell-based, human; details: 72 hours
aggregation monitoring = type: physicochemical; details: at IC50 in RPMI, DMSO, or PBS
Protocol: All compounds were evaluated in a reporter gene assay (22Rv1 cell line lentiviral transduced with CMV-firefly luciferase) to monitor transcriptional effects and two cell viability assays (Cell-titer blue; PC3 cell line, an AR insensitive cell line, and LNCaP cell line, an AR sensitive cell line). The compounds were also monitored for aggregation.

prostate cancer cell = prostate cancer cell proliferation, different cancer cell lines; type: cell-based; details: 72 hours
LNCaP = LNCaP reporter assay; type: cell-based; details: Homo sapiens
Source text: as §1
Compounds of the invention may also be identified via a reporter assay. Reporter assays are commonly used to study signaling pathways, gene expression and regulation at the transcriptional level, and the structure of regulatory elements. In general, a reporter assay comprises a regulatory element of interest (e.g. promoter DNA) along with a reporter gene (e.g., gene encoding a reporter protein) cloned into a vector and transfected into cells. In certain embodiments, a reporter is a protein. In certain embodiments, a reporter is a protein with an easily measureable activity. “Easily measureable activity” (or simply “activity”) can refer to any activity that can be measured through methods known in the art, such as fluorescence, enzymatic activities that generate fluorescent or luminescent products, or indirectly with antibodies. […]

VCaP (AR+) cell lines = assay: cell proliferation, VCaP; type: cell-based; details: 72 hours
PC3 (AR-) cell lines = assay: cell proliferation, PC3; type: cell-based; details: 72 hours

SMILES | cell proliferation (percent confluence) (DU-145 (AR-) cell lines) | cell proliferation (percent confluence) (22Rv1 (AR+) cell lines) | binding to AR-v7 (AR-v7) | cell proliferation (percent confluence) (LNCaP (AR+) cell lines) | formation of aggregates (aggregation monitoring) | prostate cancer cell proliferation (relative proliferation, percent confluence) (prostate cancer cell) | IC50 (LNCaP) [µM] | cell proliferation (percent confluence) (VCaP (AR+) cell lines) | cell proliferation (percent confluence) (PC3 (AR-) cell lines)
O=C(NCCC1C[C@@H]2C=C[C@H]1C2)c1cccc(OC2CCN(C(=O)C3CC3)CC2)c1 (stereo partly drawn) [Compound (1), N-(2-((1S,4S)-bicyclo[2.2.1]hept-5-en-2-yl)ethyl)-3-((1-(cyclopropanecarbonyl)piperidin-4-yl)oxy)benzamide] | stagnates prostate cancer cell proliferation | stagnates prostate cancer cell proliferation | found to bind to AR-v7 | stagnates prostate cancer cell proliferation | does not form aggregates | stagnates prostate cancer cell proliferation | 5.43 | stagnates prostate cancer cell proliferation | stagnates prostate cancer cell proliferation
Cc1c(C(=O)N(C)Cc2cccc3ncccc23)sc2ncnc(NCC3C[C@@H]4C=C[C@H]3C4)c12 (stereo partly drawn) [Compound (2), 4-((((1R,4R)-bicyclo[2.2.1]hept-5-en-2-yl)methyl)amino)-N,5-dimethyl-N-(quinolin-5-ylmethyl)thieno[2,3-d]pyrimidine-6-carboxamide] |  |  | found to bind to AR-v7 |  |  |  | 6.86 |  | 
